Test results from ChEMBL document CHEMBL1127145, “Syntheses of novel 1-aminocyclopropane-1-carboxylic acid (ACC)-containing -lactams” (Bioorg Med Chem Lett, 1993).
Calls of active or inactive are those of the source. No cut-off for these calls is given here.

Target: Beta-lactamase TEM (Escherichia coli) (UniProt P62593)
Assay: Inhibitory activity towards beta-lactamase enzyme at 50 mM concentration or higher; Weak inhibitor

Sequence of Beta-lactamase TEM (Escherichia coli) (P62593 whole entry): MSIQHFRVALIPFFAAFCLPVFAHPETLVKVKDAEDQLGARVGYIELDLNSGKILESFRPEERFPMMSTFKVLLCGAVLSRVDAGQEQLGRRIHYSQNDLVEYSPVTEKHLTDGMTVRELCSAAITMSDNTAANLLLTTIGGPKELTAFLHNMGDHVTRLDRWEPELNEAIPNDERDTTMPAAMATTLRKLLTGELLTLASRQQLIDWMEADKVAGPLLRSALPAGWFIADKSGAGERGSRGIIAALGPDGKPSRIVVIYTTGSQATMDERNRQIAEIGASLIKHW

In the case of `CC(=O)[C@@H]1[C@H](NC(=O)c2ccccc2)C(=O)N1C1(C(=O)O)CC1`, the Activity is reported as “inactive”.
